Experimental data from ChEMBL document CHEMBL3885861, “Open TG-GATES”.

Organism: Rattus norvegicus
Assay: Open TG-GATES - Regimen: Single
Assay type: toxicity, organism-based, Sprague-Dawley
Set-up: regimen Single, gender Male, age 6 weeks
Conditions: in vivo, po, 10 mg/kg, route gavage, dose level Middle; for APTT / Bas / Eos / Fbg / Hb / Ht / Lym / MCH / MCHC / MCV / Mono / Neu / PT / Plat / RBC / Ret / WBC: tissue Blood; for KIDNEY_L / KIDNEY_R / KIDNEY_TOTAL: tissue Kidney; for LIVER: tissue Liver; for A/G / ALP / ALT / AST / BUN / CRE / Ca / Cl / DBIL / GLC / IP / K / LDH / Na / PL / RALB / TBIL / TC / TG / TP / gamma-GTP: tissue Plasma

C[C@H]1C(=O)O[C@@H]2CCN3CC=C(COC(=O)[C@](C)(O)[C@]1(C)O)[C@H]23 [MONOCROTALINE]
TERMINAL_BW (3 h): 213.5 g
APTT (3 h): 19.4 s
Bas (3 h): 0%
Eos (3 h): 1.4%
Fbg (3 h): 303.6 mg/dL
Hb (3 h): 12.9 g/dL
Ht (3 h): 37.7%
Lym (3 h): 77.2%
MCH (3 h): 21.5 pg
MCHC (3 h): 34.2%
MCV (3 h): 62.9 fL
Mono (3 h): 2.2%
Neu (3 h): 19%
PT (3 h): 16.5 s
Plat (3 h): 122.4 x10_4/uL
RBC (3 h): 600.4 x10_4/ul
Ret (3 h): 8.6%
WBC (3 h): 80.3 x10_2/uL
KIDNEY_L (3 h): 1 g
KIDNEY_R (3 h): 0.9 g
KIDNEY_TOTAL (3 h): 1.9 g
LIVER (3 h): 9.8 g
A/G (3 h): 1.3
ALP (3 h): 1633.4 IU/L
ALT (3 h): 44.4 IU/L
AST (3 h): 72.8 IU/L
BUN (3 h): 14.2 mg/dL
CRE (3 h): 0.1 mg/dL
Ca (3 h): 10.8 mg/dL
Cl (3 h): 105.6 meq/L
DBIL (3 h): 0.002 mg/dL
GLC (3 h): 171.8 mg/dL
IP (3 h): 8.9 mg/dL
K (3 h): 4.3 meq/L
LDH (3 h): 207.6 IU/L
Na (3 h): 142.6 meq/L
PL (3 h): 139 mg/dL
RALB (3 h): 3 g/dL
TBIL (3 h): 0.012 mg/dL
TC (3 h): 80 mg/dL
TG (3 h): 73.2 mg/dL
TP (3 h): 5.3 g/dL
gamma-GTP (3 h): 1 IU/L
TERMINAL_BW (6 h): 207.4 g
APTT (6 h): 21.7 s
Bas (6 h): 0%
Eos (6 h): 1.2%
Fbg (6 h): 303.2 mg/dL
Hb (6 h): 13.2 g/dL
Ht (6 h): 38.9%
Lym (6 h): 72.4%
MCH (6 h): 20.9 pg
MCHC (6 h): 34%
MCV (6 h): 61.6 fL
Mono (6 h): 3.2%
Neu (6 h): 22%
PT (6 h): 16.3 s
Plat (6 h): 121.5 x10_4/uL
RBC (6 h): 632 x10_4/ul
Ret (6 h): 8.4%
WBC (6 h): 93.8 x10_2/uL
KIDNEY_L (6 h): 1 g
KIDNEY_R (6 h): 1 g
KIDNEY_TOTAL (6 h): 1.9 g
LIVER (6 h): 9.1 g
A/G (6 h): 1.3
ALP (6 h): 1403 IU/L
ALT (6 h): 36.6 IU/L
AST (6 h): 70.8 IU/L
BUN (6 h): 11.2 mg/dL
CRE (6 h): 0.1 mg/dL
Ca (6 h): 10.5 mg/dL
Cl (6 h): 107 meq/L
DBIL (6 h): 0.004 mg/dL
GLC (6 h): 179.6 mg/dL
IP (6 h): 9.5 mg/dL
K (6 h): 4.3 meq/L
LDH (6 h): 222.6 IU/L
Na (6 h): 141.8 meq/L
PL (6 h): 129 mg/dL
RALB (6 h): 3 g/dL
TBIL (6 h): 0.016 mg/dL
TC (6 h): 72.2 mg/dL
TG (6 h): 53.2 mg/dL
TP (6 h): 5.3 g/dL
gamma-GTP (6 h): 1 IU/L
TERMINAL_BW (9 h): 203.7 g
APTT (9 h): 20 s
Bas (9 h): 0%
Eos (9 h): 1%
Fbg (9 h): 294.4 mg/dL
Hb (9 h): 13.1 g/dL
Ht (9 h): 38.6%
Lym (9 h): 75.4%
MCH (9 h): 21 pg
MCHC (9 h): 34.1%
MCV (9 h): 61.7 fL
Mono (9 h): 2.8%
Neu (9 h): 20.2%
PT (9 h): 16.5 s
Plat (9 h): 119.6 x10_4/uL
RBC (9 h): 626 x10_4/ul
Ret (9 h): 8.8%
WBC (9 h): 71.7 x10_2/uL
KIDNEY_L (9 h): 1 g
KIDNEY_R (9 h): 1 g
KIDNEY_TOTAL (9 h): 2 g
LIVER (9 h): 9 g
A/G (9 h): 1.3
ALP (9 h): 1365.4 IU/L
ALT (9 h): 33.6 IU/L
AST (9 h): 62.8 IU/L
BUN (9 h): 11.4 mg/dL
CRE (9 h): 0.1 mg/dL
Ca (9 h): 10.6 mg/dL
Cl (9 h): 106.2 meq/L
DBIL (9 h): 0.006 mg/dL
GLC (9 h): 180.2 mg/dL
IP (9 h): 9.7 mg/dL
K (9 h): 4.2 meq/L
LDH (9 h): 144 IU/L
Na (9 h): 142.2 meq/L
PL (9 h): 132.8 mg/dL
RALB (9 h): 3.1 g/dL
TBIL (9 h): 0.024 mg/dL
TC (9 h): 73.2 mg/dL
TG (9 h): 54.8 mg/dL
TP (9 h): 5.4 g/dL
gamma-GTP (9 h): 1.2 IU/L
TERMINAL_BW (24 h): 217 g
APTT (24 h): 21.3 s
Bas (24 h): 0%
Eos (24 h): 0.8%
Fbg (24 h): 309.8 mg/dL
Hb (24 h): 13.5 g/dL
Ht (24 h): 39.6%
Lym (24 h): 80.8%
MCH (24 h): 21.1 pg
MCHC (24 h): 34%
MCV (24 h): 61.9 fL
Mono (24 h): 2.8%
Neu (24 h): 15.2%
PT (24 h): 16.2 s
Plat (24 h): 117.4 x10_4/uL
RBC (24 h): 639.8 x10_4/ul
Ret (24 h): 7.1%
WBC (24 h): 75.2 x10_2/uL
KIDNEY_L (24 h): 1 g
KIDNEY_R (24 h): 1 g
KIDNEY_TOTAL (24 h): 2 g
LIVER (24 h): 10 g
A/G (24 h): 1.3
ALP (24 h): 1872.8 IU/L
ALT (24 h): 45.2 IU/L
AST (24 h): 75.4 IU/L
BUN (24 h): 17 mg/dL
CRE (24 h): 0.1 mg/dL
Ca (24 h): 10.4 mg/dL
Cl (24 h): 106.6 meq/L
DBIL (24 h): 0.002 mg/dL
GLC (24 h): 180.8 mg/dL
IP (24 h): 6.9 mg/dL
K (24 h): 4.3 meq/L
LDH (24 h): 235.8 IU/L
Na (24 h): 142.2 meq/L
PL (24 h): 153 mg/dL
RALB (24 h): 3.1 g/dL
TBIL (24 h): 0.006 mg/dL
TC (24 h): 79.4 mg/dL
TG (24 h): 114.6 mg/dL
TP (24 h): 5.5 g/dL
gamma-GTP (24 h): 0.8 IU/L
